Values after ≈ are worked out from the molar mass of the structure shown. Read-outs that look alike come from different tables or passages of the source. Where a SMILES comes first, the peptide text is derived from it. Bridges are numbered along the chain shown (N, C = ends). [ ]: non-standard residue; d: D form. NMeR = CN[C@@H](CCCNC(=N)N)C(=O)O; dNMeR = CN[C@H](CCCNC(=N)N)C(=O)O
Tests used:
Escherichia coli = assay type: cell-based
Pseudomonas aeruginosa = assay type: cell-based
Acinetobacter baumannii = assay type: cell-based
Klebsiella pneumoniae = assay type: cell-based
Staphylococcus aureus = assay: microbe, parasite or virus in culture; assay type: cell-based
Proteinase K = Proteinase K (Parengyodontium album, UniProt P06873); assay: Proteolytic digestion with Proteinase K; assay type: in vitro ADME; conditions: 100 µM peptide, 1X TBS pH 7.5, ratio 1:200, 37 °C, HPLC, 0 to 720 min
Proteinase K, sequence (P06873 106-384): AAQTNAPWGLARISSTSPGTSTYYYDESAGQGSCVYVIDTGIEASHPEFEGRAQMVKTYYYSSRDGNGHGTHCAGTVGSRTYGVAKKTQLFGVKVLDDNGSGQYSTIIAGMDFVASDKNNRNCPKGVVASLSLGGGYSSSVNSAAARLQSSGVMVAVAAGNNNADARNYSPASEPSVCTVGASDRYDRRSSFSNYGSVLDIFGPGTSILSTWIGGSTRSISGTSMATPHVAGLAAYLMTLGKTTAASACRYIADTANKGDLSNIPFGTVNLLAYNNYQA
Protocol: Figure S15: Proteolytic degradation profiles of a. 4d and b. 4f after incubation with Proteinase K. The five overlaid chromatograms represent […] different time-points: 0 min, 2 min, 60 min, 480 min and 720 min. The identity of the peptide at different time points were monitored using MALDI-TO F.
Figure S16: a. PI uptake by A. baumannii and S. aureus, when treated with different concentrations of 4f for 10 min, monitored using flow-cytometry. b. SEM images of untreated control cells and 5 times of […]
Radial Distribution Function
The radial distribution function (g(r)) was computed to investigate the local density of specific lipid headgroups around key peptide residues. […]
The interaction energy between the peptide and membrane components was computed to quantify the binding affinity and identify the driving forces for the interaction. Using GROMACS, the production trajectories were re-analyzed by defining energy groups for the protein and different membrane components. […]
The metabolic stability of peptides (1,1d,1f and 3,3d,3f) were evaluated against two proteases-chymotrypsin and trypsin at a concentration of 100 µM. The metabolic stability of 4f was evaluated by incubating 100 µM of peptide with a more promiscuous enzyme i.e. Proteinase K. Peptides were incubated with different enzyme to peptide ratio for different time intervals at 37 ° C. […]

human red blood cells [1] = conditions: red cells of human
[2] = test system: polymyxin B-resistant A. baumannii; conditions: induced polymyxin B-resistant A. baumannii
[3] = test system: polymyxin B-resistant P. aeruginosa; conditions: induced polymyxin B-resistant P. aeruginosa
[4] = test system: human peripheral blood mononuclear cells (PBMCs); conditions: 24 h, 40
[5] = Acute in-vivo toxicity assessment; conditions: mice
[6] = Rapid equilibrium dialysis (RED) plasma protein binding; conditions: plasma spiked with 100 μM peptide, buffer pH 7.4, 37 °C, 4 h, HPLC
human red blood cells [7] = assay: Hemolysis assay against human red blood cells; conditions: ≥10% hemolysis against human RBCs; 4% (v/v) hRBCs in PBS, 1.5 h at 37 °C, 405 nm; n = 3
human red blood cells [8] = conditions: cited from earlier work
Text: These motifs were chosen based on their ability to induce 81% (-D-Ala-NMeArg–) and 92% (-D-Val-NMeArg-) β-hairpin folded fractions within a 12-mer linear peptide in aqueous solution.[24]

[9] = against E. coli, microbroth dilution, 5x10^5 cfu/mL, 20-24 h at 37 °C, turbidity 600 nm, n = 5, median

CC[C@@H](C)[C@@H](NC(=O)[C@@H](CCCNC(=N)N)N(C)C(=O)[C@H](C)NC(=O)[C@@H](Cc1ccc(O)cc1)NC(=O)[C@H](NC(=O)[C@H](NC(=O)[C@@H](CCCNC(=N)N)NC(=O)[C@@H](Cc1ccccc1)NC(=O)[C@H](NC(=O)[C@@H](Cc1c[nH]c2ccccc12)NC(=O)[C@H](N)CCCCN)[C@H](C)O)C(C)C)[C@H](C)O)C(=O)N[C@@H](C(=O)N[C@H](Cc1ccc(O)cc1)C(=O)N[C@H](CCCNC(=N)N)C(=O)N[C@H](CCCNC(=N)N)C(=O)N[C@@H](C(=O)N[C@H](CCCNC(=N)N)C(N)=O)[C@H](C)O)[C@H](C)O [4f] (H-[dK][dW][dT][dF][dR][dV][dT][dY]A[dNMeR][dI][dT][dY][dR][dR][dT][dR]-NH2)
MIC90 (Escherichia coli): 0.4 µM (≈ 0.915 µg/mL) | MIC (μM) ec (Escherichia coli): 0.4 µM (≈ 0.915 µg/mL) | MIC (μM) pa (Pseudomonas aeruginosa): 1.2 µM (≈ 2.75 µg/mL) | MIC (μM) ab (Acinetobacter baumannii): 1.6 µM (≈ 3.66 µg/mL) | MIC (μM) kp (Klebsiella pneumoniae): 1.6 µM (≈ 3.66 µg/mL) | MIC (μM) sa (Staphylococcus aureus): 0.8 µM (≈ 1.83 µg/mL) | protection against proteolysis (Proteinase K): total protection against proteolysis | MHC10 (μM), minimum hemolytic concentration (human red blood cells [1]): 50 µM | MIC [2]: 1.6 µM (≈ 3.66 µg/mL) | MIC [3]: 2.4 µM (≈ 5.49 µg/mL) | median viability of PBMCs [4]: ~85% | signs of acute toxicity ([5]; 10 mg kg^−1, intraperitoneally, monitored till 72 h): no signs of toxicity | signs of acute toxicity ([5]; 20 mg kg^−1, intraperitoneally, at 48 h, transient): mild symptoms such as wrinkled skin and loss in body weight | signs of acute toxicity ([5]; 40 mg kg^−1, intraperitoneally): Visible signs of toxicity such as wrinkled skin, poor motility, and loss in body weight | mortality ([5]; 10, 20 and 40 mg kg^−1, intraperitoneally): none of the doses led to mortality | plasma protein binding [6]: very high plasma protein binding

CC[C@H](C)[C@@H]1NC(=O)[C@H](CCCNC(=N)N)N(C)C(=O)[C@@H](C(C)C)NC(=O)[C@H](Cc2ccc(O)cc2)NC(=O)[C@@H]2CSSC[C@H](NC1=O)C(=O)N[C@@H](Cc1ccc(O)cc1)C(=O)N[C@@H](CCCNC(=N)N)C(=O)N[C@@H](CCCNC(=N)N)C(=O)N[C@H](C(=O)N[C@@H](CCCNC(=N)N)C(N)=O)CSSC[C@H](NC(=O)[C@H](Cc1c[nH]c3ccccc13)NC(=O)[C@@H](N)CCCCN)C(=O)N[C@@H](Cc1ccccc1)C(=O)N[C@@H](CCCNC(=N)N)C(=O)N[C@@H](C(C)C)C(=O)N2 [4b] (H-KWCFRVCY[dV][NMeR]ICYRRCR-NH2; disulfide 3-16, 7-12)
MIC90 (Escherichia coli; [9]): 0.2 µM (≈ 0.464 µg/mL) | MHC10 (μM), minimum hemolytic concentration (human red blood cells [7]): 12.5 µM

CC[C@H](C)[C@@H]1NC(=O)[C@H](CCCNC(=N)N)N(C)C(=O)[C@@H](C)NC(=O)[C@H](Cc2ccc(O)cc2)NC(=O)[C@@H]2CSSC[C@H](NC1=O)C(=O)N[C@@H](Cc1ccc(O)cc1)C(=O)N[C@@H](CCCNC(=N)N)C(=O)N[C@@H](CCCNC(=N)N)C(=O)N[C@H](C(=O)N[C@@H](CCCNC(=N)N)C(N)=O)CSSC[C@H](NC(=O)[C@H](Cc1c[nH]c3ccccc13)NC(=O)[C@@H](N)CCCCN)C(=O)N[C@@H](Cc1ccccc1)C(=O)N[C@@H](CCCNC(=N)N)C(=O)N[C@@H](C(C)C)C(=O)N2 [4a] (H-KWCFRVCY[dA][NMeR]ICYRRCR-NH2; disulfide 3-16, 7-12)
MIC90 (Escherichia coli; [9]): 0.3 µM (≈ 0.688 µg/mL) | MHC10 (μM), minimum hemolytic concentration (human red blood cells [7]): 12.5 µM

CC(C)[C@@H]1NC(=O)CNC(=O)[C@H](CCCNC(=N)N)NC(=O)[C@H](C(C)C)NC(=O)[C@H](CCCNC(=N)N)NC(=O)[C@H](C)NC(=O)[C@H](Cc2ccc(O)cc2)NC(=O)[C@H](C(C)C)NC(=O)[C@@H](NC(=O)[C@H](Cc2c[nH]c3ccccc23)NC(=O)[C@@H](N)CCCNC(=N)N)CSSC[C@@H](C(=O)N[C@@H](Cc2c[nH]c3ccccc23)C(=O)O)NC(=O)[C@H](CCCNC(=N)N)NC(=O)[C@H](CCCNC(=N)N)NC(=O)[C@H](Cc2ccc(O)cc2)NC(=O)[C@H](CCCNC(=N)N)NC1=O [compound 1, reference compound] (H-RWCVYARVRGVRYRRCW-OH; disulfide 3-16)
MIC90 (Escherichia coli): 1.2 µM (≈ 2.74 µg/mL) | MIC (μM) ec (Escherichia coli): 1.2 µM (≈ 2.74 µg/mL) | MIC (μM) pa (Pseudomonas aeruginosa): 3.12 µM (≈ 7.13 µg/mL) | MIC (μM) ab (Acinetobacter baumannii): 0.8 µM (≈ 1.83 µg/mL) | MIC (μM) kp (Klebsiella pneumoniae): 0.8 µM (≈ 1.83 µg/mL) | MIC (μM) sa (Staphylococcus aureus): 1.6 µM (≈ 3.65 µg/mL) | hemolysis (toxicity) (human red blood cells [8]): no measurable hemolysis

From PMC12520178, “Turn-engineering tunes the conformational rigidity of β-hairpin AMPs in achieving membrane selectivity and killing drug-resistant ESKAPE pathogens” (Chemical Science, 2025)
